Measured values reported in patent US20250313635A1, “ANTI-INTEGRIN ANTIBODIES AND USES THEREOF” (Merck Sharp & Dohme LLC, priority 2022, published 2025).

Test system: bleomycin-induced lung fibrosis mouse model
Assay: Mouse bleomycin lung fibrosis model
Type: in vivo
Conditions: MK-0429 200 mpk osmotic minipump, Nintedanib 60 mpk po qd
Experimental: Mouse bleomycin lungfibrosis models. Adult male C57BL/6 mice (Taconic, Rensselaer, NY) were housed in a temperature and humidity-controlled facility with a 12-hour light: 12-hour dark cycle. Animals had ad libitum access to food (Purina Rodent Chow 5053, LabDiet, St. Louis, MO) and water. All procedures utilizing experimental animals were conducted in accordance with the Guide for the Care and Use of Laboratory Animals, and experimental procedures were reviewed and approved by the Institutional Animal Care and Use Committee at MRL, Kenilworth, NJ.
For osmotic minipump implantation, trifluoroacetate (TFA) salt of MK-0429 was formulated in 50% dimethylsulfoxide (DMSO)/50% H2O at a concentration of 416 mg/mL. MK-0429 or vehicle solution were filled in minipumps (Alzet, #1007D, flow rate 0.5 μL/hour). Minipumps were placed in mice subcutaneously in a pocket on the back between the shoulder blades. A small incision was made and a subcutaneous pocket formed by blunt dissection. A sterile minipump was inserted into the subcutaneous pocket. The incision was closed with staples or non-absorbable suture or absorbable (subcuticular) suture. The minipumps were used for continuous drug delivery for two weeks.
Mice at 12˜13 weeks of age were randomized to five groups: saline, bleomycin instillation with vehicle (osmotic minipump), bleomycin instillation with MK-0429 treatment, bleomycin instillation with vehicle oral treatment, and bleomycin instillation with Nintedanib treatment. All mice were anaesthetized with isoflurane. Bleomycin was dosed by intratracheal (i.t) instillation in a volume of 50 μL, at a dose of 1 unit/kg body weight. After instillation, mice were kept in a heads-up position for 2-5 minutes before putting into cages. MK-0429 (200 mg/kg) was administered by Osmotic pump from day 5 to day 14 and Nintedanib (60 mg/kg) was administered, p.o., q.d., for 14 days. Vehicle was dosed orally at 10 am daily from the day 5 to the end of the studies and dosing volume was 10 mL/kg. For plasma PK analysis, an aliquot of 50 μL plasma was spiked into a 96-well plate, and 200 μL of acetonitrile containing internal standard were added for protein precipitation. The mixture was vortexed, centrifuged at 4000 rpm for 20 minutes. Then 50 μL of supernatant fraction was mixed with 200 μL H2O and the final solution were injected for LC-MS/MS analysis. The methods for quantitative analysis were developed on UPLC (Waters) chromatographic system equipped with an API4000 QTrap™ mass spectrometer (Applied Biosystems, Concord, Ontario, Canada). Analyst 1.5 software packages (Applied Biosystems) were used to control the LC-MS/MS system and data acquisition and processing.
Histopathology analysis. Upon completion of the study, animals were euthanized and tissues were collected for histological assessment. Lung tissues were perfused with 10% formalin, fixed for 24 hours, and then paraffin embedded. Tissue sections were stained with hematoxylin & eosin (H&E) and Masson's trichrome, subsequently evaluated under light microscope. The severity of histopathologic changes and fibrosis in the lung were graded as described previously by pathologists (Ashcroft et al., J. Clin. Pathol. 41, 467-470 (1988); Hubner et al., Biotechniques 44(507-511), 514-607 (2008)). Following deparaffinization and rehydration, each lung tissue section was processed to identify αSMA deposition by immunohistochemistry. The primary antibodies used were αSMA antibody from Sigma. The Aperio ScanScope™ XT Slide Scanner (Aperio Technologies) system was used to capture whole slide digital images with a 20×objective. Digital images were managed using Aperio Spectrum™. The positive stains were identified and quantified using a macro created from a color deconvolution algorithm (Aperio Technologies). Statistical analysis was performed by using One-way ANOVA followed by Tukey's test.

[1] = 14 days treatment, vs BLM-vehicle

For COc1ccc([C@H](CC(=O)O)N2CCN(CCCc3ccc4c(n3)NCCC4)C2=O)cn1 [MK-0429, (3S)-3-(6-methoxypyridin-3-yl)-3-[2-oxo-3-[3-(5,6,7,8-tetrahydro-1,8-naphthyridin-2-yl)propyl]imidazolidin-1-yl]propanoic acid], the “body weight difference vs bleomycin group” value was “no significant body weight difference”, the “BALF TIMP-1 content” value [1] was “did not reach statistical significance” and the “bleomycin-induced αSMA expression (IHC)” value [1] was “significantly decreased”. The “inflammation in the lung” value [1] was “nonstatistical significant decrease” and the “modified Ashcroft score” value [1] was “significantly decreased”.
